Assay results reported in patent publication US9365563B2, “TRPV1 antagonists including dihydroxy substituent and uses thereof” (Purdue Pharma L.P., priority 2007, dated 2016).

Legend:
Aqueous solubility = format: physicochemical
human TRPV1 = human TRPV1 (Homo sapiens (Human), UniProt Q8NER1); assay: Capsaicin-based assay, Protocol 2 (hCAP-CHO); format: cell-based; settings: TRPV1/CHO cells, 100 nM capsaicin; mean ± SEM; read-out: TRPV1 IC50 Potency Human Capsaicin CHO (hCAP-CHO)
Source text: The TRPV1/CHO cell line was generated as described below. […] The resulting PCR products were purified from agarose gels using Gel Band Purification Kit (GE Healthcare Bioscience) and were subcloned into pCR-Blunt vector (Invitrogen). The cloned cDNA was fully sequenced using a fluorescent dye-terminator reagent (BigDye Terminator ver3.1 Cycle Sequencing Kit, Applied Biosystems) and ABI Prism 3100 genetic analyzer (Applied Biosystems). The pCR-Blunt vector containing the hTRPV1 cDNA was subjected to restriction digestion with EcoR1. The restriction fragment was subcloned into expression vector pcDNA3.1(-) (Invitrogen) and named pcDNA3.1(-)-hVR1 plasmid. The sequence of the cDNA encoding TRPV1 is available at GenBank accession number AJ277028. […] The cells were transfected with the pcDNA3.1(-)-hVR1 plasmid using FuGENE6 (Roche) according to the manufacturer's protocol. 24 hr after transfection, neomycin-resistant cells were selected using 1 mg/mL G418 (Nacalai Tesque). […] The cells expressing hTRPV1 were cultured in the growth medium supplemented with 1 mg/mL G418. […] Subsequently, the cells were loaded by incubation in 0.1 mL of wash buffer containing Fluo-4 at 3 μM final concentration. After 1 hour, the cells were washed twice with 0.2 mL wash buffer and resuspended in 0.1 mL wash buffer. The plates were then transferred to a Fluorescence Imaging Plate Reader (Molecular Devices). Fluorescence intensity was monitored for 15 seconds to establish a baseline. […] The final concentration of the compound was adjusted to range from 100 μM to 1.5625 μM. […] Data were collected over the entire time course and analyzed using Excel and the curve-fitting formula GraphPad Prism.

[1] = Plasma concentration after administration to an animal; format: in vivo

human TRPV1, sequence (Q8NER1 whole entry, the tested form may be a part): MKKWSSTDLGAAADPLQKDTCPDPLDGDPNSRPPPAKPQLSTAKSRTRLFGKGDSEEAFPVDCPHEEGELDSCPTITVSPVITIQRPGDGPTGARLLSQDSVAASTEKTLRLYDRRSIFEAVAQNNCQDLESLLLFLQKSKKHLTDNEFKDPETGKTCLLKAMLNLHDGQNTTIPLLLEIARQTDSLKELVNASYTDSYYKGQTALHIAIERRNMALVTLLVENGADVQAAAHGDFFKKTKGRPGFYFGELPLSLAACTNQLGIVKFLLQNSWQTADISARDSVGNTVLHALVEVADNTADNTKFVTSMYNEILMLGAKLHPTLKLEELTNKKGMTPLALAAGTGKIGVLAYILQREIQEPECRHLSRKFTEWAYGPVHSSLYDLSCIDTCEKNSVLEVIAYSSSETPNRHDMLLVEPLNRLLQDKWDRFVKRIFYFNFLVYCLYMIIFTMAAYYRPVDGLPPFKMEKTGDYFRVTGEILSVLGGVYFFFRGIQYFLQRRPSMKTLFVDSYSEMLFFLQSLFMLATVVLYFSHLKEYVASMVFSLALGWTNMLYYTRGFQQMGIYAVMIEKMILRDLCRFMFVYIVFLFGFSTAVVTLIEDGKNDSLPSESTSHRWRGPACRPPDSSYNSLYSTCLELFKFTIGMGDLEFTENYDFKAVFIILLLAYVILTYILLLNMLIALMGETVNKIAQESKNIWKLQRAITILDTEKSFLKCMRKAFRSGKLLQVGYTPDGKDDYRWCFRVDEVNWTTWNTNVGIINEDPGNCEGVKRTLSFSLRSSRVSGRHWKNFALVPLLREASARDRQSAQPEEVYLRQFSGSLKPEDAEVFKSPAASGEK

Structure (SMILES) | aqueous solubility at pH 1.2 (Aqueous solubility) | aqueous solubility at pH 6.8 (Aqueous solubility) | further results
O=C(Nc1ccc(OC(F)(F)F)cc1)N1CCC(F)(c2ncc([C@H](O)CO)cc2Cl)CC1 [Compound C1] | > 50 μM | 15.7 μM | 
O=C(Nc1ccc(S(=O)(=O)C(F)(F)F)cc1)N1CCC(F)(c2ncccc2Cl)CC1 [Compound 210] | 2.0 μM | 0.4 μM | 
O=C(Nc1ccc(C(F)(F)F)c(Cl)c1)N1CCC(F)(c2ncc([C@H](O)CO)cc2F)CC1 [Compound Q3] |  |  | IC50 (human TRPV1): 14.3 ± 1.3 nM
COC(=O)Cc1cnc(C2=CCN(C(=O)Nc3ccc(C(F)(F)F)cc3)CC2)c(Cl)c1 [Compound F6] | > 50 μM | 9.2 μM | 
CC(O)c1cnc(C2=CCN(C(=O)Nc3ccc(C(F)(F)F)cc3)CC2)c(Cl)c1 (stereo not drawn) [Compound G2] | > 50 μM | 38.2 μM | 
O=C1C=C(c2ncc([C@H](O)CO)cc2Cl)CCN1C(=O)Nc1ccc(C(F)(F)F)cn1 [Compound C6] |  |  | IC50 (human TRPV1): > 25000 nM
CN(C)Cc1cnc(C2=CCN(C(=O)Nc3ccc(C(F)(F)F)cc3)CC2)c(Cl)c1 [Compound H6] | > 50 μM | > 50 μM | 
O=C(Nc1ccc(C(F)(F)F)c(F)c1)N1CCC(F)(c2ncc([C@H](O)CO)cc2F)CC1 [Compound Y3] | > 50 μM | 17.4 μM | 
O=C(Nc1ccc(C(F)(F)F)cc1)N1CCC(F)(c2ncc([C@H](O)CO)cc2F)CC1 [Compound N6] | > 50 μM | > 50 μM | 
O=C(Nc1ccc(C(F)(F)F)c(Cl)c1)N1CCC(F)(c2ncc([C@@H](O)CO)cc2F)CC1 [Compound P5] |  |  | IC50 (human TRPV1): 49.5 nM
O=C(Nc1ccc(C(F)(F)F)cc1)N1CCC(F)(c2ncccc2Cl)CC1 [Compound 203] |  |  | aqueous solubility at pH 6.8 (in words) (Aqueous solubility): insoluble
O=C(Nc1ccc(C(F)(F)F)c(Cl)c1)N1CC=C(c2ncccc2F)CC1 [Compound 215] | 9.6 μM | 0.6 μM | 
O=C(Nc1ccc(C(F)(F)F)c(F)c1)N1CC=C(c2ncccc2Cl)CC1 [Compound 213] | 39.6 μM | 0.8 μM | 
O=C(O)Cc1cnc(C2=CCN(C(=O)Nc3ccc(C(F)(F)F)cc3)CC2)c(Cl)c1 [Compound G6] | > 50 μM | > 50 μM | 
O=C(Nc1ccc(C(F)(F)F)cc1)N1CC=C(c2ncc([C@H](O)CO)cc2Cl)CC1 [Compound Z1, (S)-3-Chloro-5-(1,2-dihydroxy-ethyl)-3′,6′-dihydro-2′H-[2,4]bipyridinyl-1′-carboxylic acid (4-trifluoromethyl-phenyl)amide] | > 50 μM | > 50 μM | time to maximum plasma concentration after administration ([1]; animal plasma): 2.5 h; maximum plasma concentration relative to the maximum for compound 200 ([1]; animal plasma, for a given dose): 2.5 times; plasma concentration up to 24 h compared with compound 200 ([1]; up to 24 h): consistently greater
O=C(O)c1cnc(C2=CCN(C(=O)Nc3ccc(C(F)(F)F)cc3)CC2)c(Cl)c1 [Compound M5] |  |  | IC50 (human TRPV1): > 25000 nM
O=C(Nc1ccc(C(F)(F)F)c(F)c1)N1CCC(F)(c2ncc([C@H](O)CO)cc2Cl)CC1 [Compound F1] | > 50 μM | 22.6 μM | 

Structure (SMILES) | aqueous solubility at pH 1.2 (Aqueous solubility) | aqueous solubility at pH 6.8 (Aqueous solubility) | further results
O=C(Nc1ccc(OC(F)(F)F)cc1)N1CC=C(c2ncc([C@H](O)CO)cc2Cl)CC1 [Compound E2] | > 50 μM | > 50 μM | 
O=C(Nc1ccc(C(F)(F)F)cc1)N1CCC(F)(c2ncccc2F)CC1 [Compound 207] |  |  | aqueous solubility at pH 6.8 (in words) (Aqueous solubility): insoluble
O=C(Nc1ccc(OC(F)(F)F)cc1)N1CCC(F)(c2ncccc2Cl)CC1 [Compound 211] | 1.3 μM | 0.4 μM | 
O=C(Nc1ccc(S(=O)(=O)C(F)(F)F)cc1)N1CCC(F)(c2ncc([C@H](O)CO)cc2Cl)CC1 [Compound H1] | > 50 μM | > 50 μM | 
O=C(Nc1ccc(C(F)(F)F)c(F)c1)N1CCC(F)(c2ncccc2F)CC1 [Compound 212] | 10.3 μM | 1.9 μM | 
O=C(Nc1ccc(OC(F)(F)F)cc1)N1CC=C(c2ncccc2Cl)CC1 [Compound 214] | > 50 μM | 1.8 μM | 
O=C(Nc1ccc(OC(F)(F)F)c(-c2ccccc2)c1)N1CC=C(c2ncc(CO)cc2Cl)CC1 [Compound D3] |  |  | IC50 (human TRPV1): 565 ± 58.6 nM
O=C(Nc1ccc(C(F)(F)F)c(F)c1)N1CCC(F)(c2ncccc2Cl)CC1 [Compound 209] | 9.3 μM | 1.0 μM | 
O=C(Nc1ccc(C(F)(F)F)cc1)N1CC=C(c2ncc(CO)cc2Cl)CC1 [Compound J2] | > 50 μM | > 50 μM | 
CC(C)(C)c1ccc(NC(=O)N2CC=C(c3ncc([C@@H](O)CO)cc3Cl)CC2)cc1 [Compound E1] |  |  | IC50 (human TRPV1): 18.5 ± 4.9 nM
O=C(Nc1ccc(C(F)(F)F)c(F)c1)N1CC=C(c2ncc([C@H](O)CO)cc2Cl)CC1 [Compound S1, (S)-3-Chloro-5-(1,2-dihydroxy-ethyl)-3′,6′-dihydro-2′H-[2,4]bipyridinyl-1′-carboxylic acid (3-fluoro-4-trifluoromethyl-phenyl)amide] | > 50 μM | > 50 μM | 
O=C(Nc1ccc(C(F)(F)F)cc1)N1CC=C(c2ncccc2F)CC1 [Compound 208] |  |  | aqueous solubility at pH 6.8 (in words) (Aqueous solubility): insoluble
O=C(Nc1ccc(C(F)(F)F)c(Cl)c1)N1CC=C(c2ncc([C@H](O)CO)cc2F)CC1 [Compound U3] | > 50 μM | 26.4 μM | 
CC(C)S(=O)(=O)c1ccc(NC(=O)N2CC=C(c3ncc(CO)cc3Cl)CC2)cc1 [Compound K3] |  |  | IC50 (human TRPV1): > 10000 nM
CCOC(=O)c1cnc(C2=CCN(C(=O)Nc3ccc(C(F)(F)F)cc3)CC2)c(Cl)c1 [Compound F2] | 1.0 μM | 3.0 μM | 
O=C(Nc1ccc(C(F)(F)F)cc1)N1CC=C(c2ncccc2Cl)CC1 [Compound 200] | < 0.1 μM | < 0.1 μM | aqueous solubility at pH 6.8 (in words) (Aqueous solubility): insoluble; time to maximum plasma concentration after administration ([1]; animal plasma): 3.1 h
O=C(Nc1ccc(C(F)(F)F)cc1)N1CC=C(c2ncc([C@H](O)CO)cc2F)CC1 [Compound U1] | > 50 μM | > 50 μM | 
